Results filed as inconclusive are left out. The source made the active and inactive calls.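 Rule for the calls: active = valid dose-response fit whose half-maximal growth-inhibiting concentration is at or below a set limit above the top tested dose; inconclusive = flat fit with effect between 30 and 70%, or poor fit; inactive = half-maximal concentration above a set limit.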
Assay: antibacterial activity against Clostridioides difficile – 10-point retest, dose response (AID 1259246)
Conditions: Clostridioides difficile clinical isolate growth, OD600, 24 h; at 60 µM (top of the series)
In the case of `C/C=C/c1ccc2c(c1)O[C@@H](CN(C)Cc1ccc(C(=O)O)cc1)[C@H](C)CN([C@H](C)CO)S2(=O)=O`, the activity change, negative = inhibition was 8.2% (inactive).
In the case of `C[C@H](CO)N1C[C@H](C)[C@@H](CN(C)S(=O)(=O)c2cn(C)cn2)OCCCC[C@H](C)Oc2ccc(NC(=O)Nc3cccc4ccccc34)cc2C1=O`, the activity change, negative = inhibition was 4.46% (inactive).
For `O=C(C[C@H]1C[C@@H]2c3cc(NC(=O)Nc4ccc(F)cc4)ccc3O[C@@H]2[C@@H](CO)O1)NC1CCCCC1`, the activity change, negative = inhibition was 0.486% (inactive).
For `CO[C@H]1CN(C)C(=O)c2ccc(NC(=O)c3ccc(-c4ccccc4)cc3)cc2OC[C@@H](C)NC[C@@H]1C`, the activity change, negative = inhibition was 12.9% (inactive).
In the case of `O=C(C[C@@H]1C[C@H]2c3cc(NC(=O)C4CCC4)ccc3O[C@H]2[C@H](CO)O1)NCc1ccc(Cl)cc1`, the activity change, negative = inhibition was -4.77% (inactive).
With `C[C@@H]1CN([C@@H](C)CO)S(=O)(=O)c2ccc(C#Cc3ccccc3F)cc2O[C@@H]1CN(C)CC1CCOCC1` the activity change, negative = inhibition was 3.46% (inactive).
For `O=C(O)C[C@H]1C[C@@H]2c3cc(NC(=O)C4CCC4)ccc3O[C@@H]2[C@@H](CO)O1`, the activity change, negative = inhibition was -2.3% (inactive).

Same assay, conditions: Clostridioides difficile clinical isolate growth, OD600, 24 h; at 120 µM (top of the series)
For `CO[C@H]1CN(C)C(=O)c2cc(NC(=O)c3ccc(-c4ccccc4)cc3)ccc2OC[C@@H](C)NC[C@@H]1C`, the activity change, negative = inhibition was 30.6% (inactive).
With `C[C@@H]1CN([C@@H](C)CO)C(=O)Cc2cc(N(C)C)ccc2O[C@@H]1CN(C)Cc1ccc(Oc2ccccc2)cc1` the activity change, negative = inhibition was 12.4% (inactive).
With `O=C(C[C@H]1C[C@H]2c3cc(NC(=O)Nc4ccccc4)ccc3O[C@H]2[C@H](CO)O1)NC1CCCC1` the activity change, negative = inhibition was -1.4% (inactive).
In the case of `CC(C)NC(=O)Nc1ccc2c(c1)CC(=O)N([C@@H](C)CO)C[C@@H](C)[C@@H](CN(C)Cc1ccc(-c3ccccc3)cc1)O2`, the activity change, negative = inhibition was 25% (inactive).
For `CC(C)CC#Cc1ccc2c(c1)O[C@H](CN(C)Cc1cccnc1)[C@@H](C)CN([C@@H](C)CO)S2(=O)=O`, the activity change, negative = inhibition was 20.5% (inactive).
In the case of `COc1ccccc1CNC(=O)C[C@H]1C[C@@H]2c3cc(NC(=O)NC4CCCC4)ccc3O[C@@H]2[C@@H](CO)O1`, the activity change, negative = inhibition was -0.476% (inactive).
With `CC(C)CC#Cc1ccc2c(c1)O[C@H](CN(C)Cc1ccccc1)[C@@H](C)CN([C@@H](C)CO)S2(=O)=O` the activity change, negative = inhibition was 35.7% (inactive).
With `C[C@H](CO)N1C[C@H](C)[C@@H](CN(C)Cc2ccc(-c3ccccc3)cc2)Oc2ccc(NC(=O)C3CC3)cc2CC1=O` the activity change, negative = inhibition was 25.6% (inactive).
In the case of `CO[C@H]1CN(C)C(=O)c2cc(NC(=O)c3ccc(-c4ccccc4)cc3)ccc2OC[C@H](C)NC[C@H]1C`, the activity change, negative = inhibition was 25.8% (inactive).
For `CC(C)C#Cc1ccc2c(c1)O[C@@H](CN(C)Cc1cccnc1)[C@H](C)CN([C@H](C)CO)S2(=O)=O`, the activity change, negative = inhibition was 27.7% (inactive).
In the case of `C[C@@H]1CCCCO[C@H](CN(C)C)[C@H](C)CN([C@H](C)CO)C(=O)c2cc(NC(=O)c3ccncc3)ccc2O1`, the activity change, negative = inhibition was 45.3% (inactive).
With `C[C@@H]1CN([C@H](C)CO)S(=O)(=O)c2ccc(C#CCN(C)C)cc2O[C@@H]1CN(C)Cc1ccc2c(c1)OCO2` the activity change, negative = inhibition was 0.003% (inactive).
In the case of `C[C@@H]1CN([C@@H](C)CO)S(=O)(=O)c2ccc(/C=C/c3ccccc3)cc2O[C@H]1CN(C)C(=O)c1ccncc1`, the activity change, negative = inhibition was 14.4% (inactive).
For `C[C@@H]1CCCCO[C@H](CN(C)S(=O)(=O)c2ccc(F)cc2)[C@@H](C)CN([C@H](C)CO)C(=O)c2cc(NC(=O)Nc3cccc4ccccc34)ccc2O1`, the activity change, negative = inhibition was 7.93% (inactive).
For `C[C@H](CO)N1C[C@H](C)[C@@H](CN(C)C(=O)Nc2ccc(F)cc2)OCCCC[C@H](C)Oc2ccc(NC(=O)Nc3cccc4ccccc34)cc2C1=O`, the activity change, negative = inhibition was 40.4% (inactive).
For `CC(C)CC#Cc1ccc2c(c1)O[C@H](CN(C)Cc1ccc(F)cc1)[C@H](C)CN([C@@H](C)CO)S2(=O)=O`, the activity change, negative = inhibition was 34.5% (inactive).
With `O=C(N[C@H]1CC[C@H](CCNS(=O)(=O)c2ccc(Cl)cc2)O[C@H]1CO)c1ccccn1` the activity change, negative = inhibition was -10.3% (inactive).
For `C/C=C/c1ccc2c(c1)O[C@H](CN(C)CC1CCOCC1)[C@H](C)CN([C@@H](C)CO)S2(=O)=O`, the activity change, negative = inhibition was -1.64% (inactive).
In the case of `O=C(C[C@@H]1C[C@H]2c3cc(NC(=O)Nc4ccc(F)cc4)ccc3O[C@H]2[C@@H](CO)O1)NC1CCCCC1`, the activity change, negative = inhibition was -2.82% (inactive).
For `C[C@H]1CN([C@@H](C)CO)S(=O)(=O)c2ccc(C#CC3CCCCC3)cc2O[C@H]1CN(C)Cc1cccnc1`, the activity change, negative = inhibition was 19.1% (inactive).
With `CNC[C@@H]1Oc2cc(Br)ccc2S(=O)(=O)N([C@H](C)CO)C[C@H]1C` the activity change, negative = inhibition was 2.27% (inactive).
With `C[C@@H]1CN([C@@H](C)CO)C(=O)Cc2cc(NC(=O)C3CC3)ccc2O[C@@H]1CN(C)Cc1ccc(-c2ccccc2)cc1` the activity change, negative = inhibition was 20.7% (inactive).
For `COc1ccc(NC(=O)Nc2cccc3c2O[C@@H](CN(C)Cc2ccc(Oc4ccccc4)cc2)[C@@H](C)CN([C@@H](C)CO)C3=O)cc1`, the activity change, negative = inhibition was 30.5% (inactive).
For `C[C@H]1CN([C@@H](C)CO)S(=O)(=O)c2ccc(Br)cc2O[C@@H]1CN(C)Cc1cccnc1`, the activity change, negative = inhibition was -0.003% (inactive).
With `N#C[C@H]1[C@@H](c2ccc(C#CC3CCCCC3)cc2)[C@@H](CO)N1C(=O)Cc1ccccn1` the activity change, negative = inhibition was 40.2% (inactive).
With `CNC[C@H]1Oc2ccc(N)cc2CC(=O)N([C@H](C)CO)C[C@H]1C` the activity change, negative = inhibition was -8.02% (inactive).
For `CO[C@H]1CN(C)C(=O)c2ccc(NC(=O)C3CCC3)cc2OC[C@H](C)N(Cc2ccncc2)C[C@@H]1C`, the activity change, negative = inhibition was -5.3% (inactive).
With `CO[C@@H]1CN(C)C(=O)c2ccc(NC(=O)c3nc4ccccc4s3)cc2OC[C@@H](C)NC[C@H]1C` the activity change, negative = inhibition was -7.73% (inactive).
In the case of `CO[C@@H]1CN(C)C(=O)c2ccc(NC(=O)C3CCC3)cc2OC[C@@H](C)N(Cc2ccncc2)C[C@H]1C`, the activity change, negative = inhibition was -0.707% (inactive).
For `C[C@@H]1CN([C@H](C)CO)C(=O)c2cc(NS(=O)(=O)c3ccccc3)ccc2O[C@@H](C)CCCCO[C@H]1CN(C)S(=O)(=O)c1ccc(F)cc1`, the activity change, negative = inhibition was 12.7% (inactive).
For `C/C=C/c1ccc2c(c1)O[C@H](CN(C)Cc1ccc(F)cc1)[C@H](C)CN([C@H](C)CO)S2(=O)=O`, the activity change, negative = inhibition was 11.8% (inactive).
For `C[C@@H]1CN([C@H](C)CO)C(=O)c2cc(NC(=O)Nc3cccc4ccccc34)ccc2O[C@@H](C)CCCCO[C@H]1CN(C)S(=O)(=O)c1ccc(F)cc1`, the activity change, negative = inhibition was 38% (inactive).
For `COc1ccc(NC(=O)Nc2cccc3c2O[C@@H](CN(C)Cc2ccc(Oc4ccccc4)cc2)[C@H](C)CN([C@H](C)CO)C3=O)cc1`, the activity change, negative = inhibition was 16.6% (inactive).
With `C/C=C/c1ccc2c(c1)O[C@H](CN(C)Cc1ccc(F)cc1)[C@H](C)CN([C@@H](C)CO)S2(=O)=O` the activity change, negative = inhibition was 7.75% (inactive).
In the case of `C[C@H]1CN([C@@H](C)CO)C(=O)c2cccc(NC(=O)Nc3ccc4c(c3)OCO4)c2O[C@@H]1CN(C)Cc1ccc(-c2ccccc2)cc1`, the activity change, negative = inhibition was 2.11% (inactive).
In the case of `O=C(C[C@H]1C[C@H]2c3cc(NC(=O)Nc4ccc(F)cc4)ccc3O[C@H]2[C@H](CO)O1)NC1CCCCC1`, the activity change, negative = inhibition was 2.71% (inactive).
With `COc1ccccc1-c1ccc2c(c1)O[C@H](CN(C)Cc1ccc3c(c1)OCO3)[C@H](C)CN([C@@H](C)CO)S2(=O)=O` the activity change, negative = inhibition was 31.6% (inactive).
For `C/C=C/c1ccc2c(c1)O[C@@H](CN(C)Cc1ccc(C(=O)O)cc1)[C@H](C)CN([C@@H](C)CO)S2(=O)=O`, the activity change, negative = inhibition was -3.63% (inactive).
For `Cc1ccc(-c2ccc3c(c2)O[C@@H](CN(C)Cc2ccncc2)[C@H](C)CN([C@@H](C)CO)S3(=O)=O)cc1`, the activity change, negative = inhibition was 21.6% (inactive).
With `C[C@@H]1CN([C@@H](C)CO)C(=O)c2cc(NC(=O)NC3CCCCC3)ccc2O[C@@H]1CN(C)C(=O)Nc1ccc(F)cc1` the activity change, negative = inhibition was 58.5% (inactive).
In the case of `C[C@@H]1CCCCO[C@@H](CN(C)S(=O)(=O)c2ccc(F)cc2)[C@H](C)CN([C@H](C)CO)C(=O)c2cc(NC(=O)Nc3cccc4ccccc34)ccc2O1`, the activity change, negative = inhibition was 34.2% (inactive).
With `C[C@@H]1CN([C@H](C)CO)S(=O)(=O)c2ccc(/C=C/c3ccccc3)cc2O[C@H]1CN(C)C(=O)c1ccncc1` the activity change, negative = inhibition was 17.1% (inactive).
With `COc1ccc(S(=O)(=O)N(C)C[C@H]2Oc3c(NC(=O)Nc4ccc5c(c4)OCO5)cccc3C(=O)N([C@@H](C)CO)C[C@H]2C)cc1` the activity change, negative = inhibition was 11.1% (inactive).

Same assay, conditions: Clostridioides difficile clinical isolate growth, OD600, 24 h; at 135 µM (top of the series)
For `C[C@@H]1CN([C@H](C)CO)C(=O)Cc2cc(NC(=O)CCC(F)(F)F)ccc2O[C@H]1CN(C)Cc1ccc(-c2ccccc2)cc1`, the activity change, negative = inhibition was 15.9% (inactive).
With `C[C@@H]1CN([C@@H](C)CO)C(=O)Cc2cc(NC(=O)C3CC3)ccc2O[C@@H]1CN(C)Cc1ccccc1` the activity change, negative = inhibition was 0.355% (inactive).
In the case of `CO[C@H]1CN(C)C(=O)c2cc(NC(=O)c3ccc(-c4ccccc4)cc3)ccc2OC[C@H](C)NC[C@H]1C`, the activity change, negative = inhibition was 102% (inactive).
With `C[C@@H]1CN([C@@H](C)CO)C(=O)Cc2cc(NC(=O)CCCN(C)C)ccc2O[C@H]1CN(C)S(C)(=O)=O` the activity change, negative = inhibition was -4.68% (inactive).
With `C[C@@H]1CN([C@H](C)CO)C(=O)c2cc(NC(=O)Nc3cccc4ccccc34)ccc2O[C@@H](C)CCCCO[C@H]1CN(C)S(=O)(=O)c1cn(C)cn1` the activity change, negative = inhibition was 33.1% (inactive).
For `C[C@@H]1CN([C@H](C)CO)C(=O)Cc2cc(N(C)C)ccc2O[C@@H]1CN(C)Cc1ccc(Oc2ccccc2)cc1`, the activity change, negative = inhibition was 23.7% (inactive).
For `COc1ccc(-c2ccc([C@H]3[C@H](C#N)N(C(=O)C4CC4)[C@H]3CO)cc2)cc1`, the activity change, negative = inhibition was -0.086% (inactive).
In the case of `C[C@H]1CN([C@@H](C)CO)C(=O)Cc2cc(NC(=O)C3CC3)ccc2O[C@H]1CN(C)Cc1ccc(Oc2ccccc2)cc1`, the activity change, negative = inhibition was 26.6% (inactive).
In the case of `C[C@H](CO)N1C[C@H](C)[C@H](CN(C)Cc2ccc(F)cc2)Oc2ncc(-c3cc4ccccc4o3)cc2C1=O`, the activity change, negative = inhibition was 52.5% (inactive).
For `Cc1ccc(S(=O)(=O)N(C)C[C@H]2Oc3ccc(NS(C)(=O)=O)cc3C(=O)N([C@@H](C)CO)C[C@H]2C)cc1`, the activity change, negative = inhibition was 9.46% (inactive).

Reference: PubChem BioAssay AID1259246 (Broad Institute, 2017)
